Reference: patent US20080176862A1, “New Compounds 617” (ASTRAZENECA AB, priority 2006, published 2008)
Counter-ions that a name gives are not always drawn.

Target: T1, human β-Secretase (soluble part, AA1-AA460; sBACE-Fc) (Homo sapiens, UniProt P56817)
T1 construct: The soluble part of the human β-Secretase (AA1-AA460) was cloned into the ASP2-Fc10-1-IRES-GFP-neoK mammalian expression vector; made in house
Experiment: TR-FRET assay
Type: biochemical
Settings: IC50 (nM) in TR-FRET assay, substrate (Europium)CEVNLDAEFK(Qsy7) 100 nM, pH 4.5, 15 min at RT

T1 sequence (P56817 22-460): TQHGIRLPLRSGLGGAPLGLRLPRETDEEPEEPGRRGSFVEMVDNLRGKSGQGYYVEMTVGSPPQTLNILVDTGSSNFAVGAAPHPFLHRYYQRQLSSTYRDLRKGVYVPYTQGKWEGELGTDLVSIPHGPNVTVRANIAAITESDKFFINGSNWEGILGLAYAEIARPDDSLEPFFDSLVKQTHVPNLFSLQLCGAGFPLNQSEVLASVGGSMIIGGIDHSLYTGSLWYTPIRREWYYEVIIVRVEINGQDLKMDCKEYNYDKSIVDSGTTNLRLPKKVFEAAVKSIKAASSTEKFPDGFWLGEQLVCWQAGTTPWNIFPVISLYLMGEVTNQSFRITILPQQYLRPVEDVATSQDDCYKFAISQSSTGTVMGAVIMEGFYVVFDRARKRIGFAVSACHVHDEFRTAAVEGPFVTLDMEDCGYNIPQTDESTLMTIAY

`COc1cc(Cl)cc(-c2cc(C3(c4cccc(OS(=O)(=O)C(C)C)c4)N=C(N)N(C)C3=O)ccc2F)c1` (stereo not drawn) [Example 107, 3-[2-Amino-4-(3′-chloro-6-fluoro-5′-methoxybiphenyl-3-yl)-1-methyl-5-oxo-4,5-dihydro-1H-imidazol-4-yl]phenyl propane-2-sulfonate] showed an IC50 of 311 nM.

Same assay, conditions: substrate (Europium)CEVNLDAEFK(Qsy7) 100 nM, pH 4.5, 15 min at RT

For `COc1cc(OS(C)(=O)=O)cc(-c2cc(C3(c4ccccc4)N=C(N)N(C)C3=O)ccc2F)c1` (stereo not drawn) [Example 84, 5′-(2-Amino-1-methyl-5-oxo-4-phenyl-4,5-dihydro-1H-imidazol-4-yl)-2′-fluoro-5-methoxybiphenyl-3-yl methanesulfonate], the “IC50 (nM) in TR-FRET assay” value was “inactive”.

Same assay, conditions: substrate (Europium)CEVNLDAEFK(Qsy7) 100 nM, pH 4.5, 15 min at RT; read-out: IC50 (nM) in TR-FRET assay

Going from `CN1C(=O)C(c2cccc(OS(=O)(=O)c3cn(C)cn3)c2)(c2ccc(F)c(-c3cncnc3)c2)N=C1N` (stereo not drawn) [Example 243, 3-[2-Amino-4-(4-fluoro-3-pyrimidin-5-ylphenyl)-1-methyl-5-oxo-4,5-dihydro-1H-imidazol-4-yl]phenyl 1-methyl-1H-imidazole-4-sulfonate] to `CN1C(=O)C(c2cccc(OS(C)(=O)=O)c2)(c2ccc(F)c(-c3cncnc3)c2)N=C1N` (stereo not drawn) [Example 94, 3-[2-Amino-4-(4-fluoro-3-pyrimidin-5-ylphenyl)-1-methyl-5-oxo-4,5-dihydro-1H-imidazol-4-yl]phenyl methanesulfonate], the IC50 rises from 26 nM to 472 nM (18-fold). The first is the more potent here.

First: CN1C(=O)C(c2ccc(OS(=O)(=O)C(F)(F)F)cc2)(c2ccc(F)c(-c3cc(Cl)ccn3)c2)N=C1N (stereo not drawn) [Example 149, 4-{2-Amino-4-[3-(4-chloropyridin-2-yl)-4-fluorophenyl]-1-methyl-5-oxo-4,5-dihydro-1H-imidazol-4-yl}phenyl trifluoromethanesulfonate 0.75 acetate]
Second: CN1C(=O)C(c2ccc(OS(C)(=O)=O)cc2)(c2ccnc(-c3cccc(C#N)c3)c2)N=C1N (stereo not drawn) [Example 34, 4-{2-Amino-4-[2-(3-cyanophenyl)pyridin-4-yl]-1-methyl-5-oxo-4,5-dihydro-1H-imidazol-4-yl}phenyl methanesulfonate 0.25 acetate]
The IC50 of the first is 5.7-fold lower: 163 nM for the first, 924 nM for the second.

`CN1C(=O)C(c2cccc(OS(=O)(=O)N(C)C)c2)(c2ccc(F)c(-c3cc(Cl)cc(Cl)c3)c2)N=C1N` (stereo not drawn) [Example 113, 3-[2-Amino-4-(3′,5′-dichloro-6-fluorobiphenyl-3-yl)-1-methyl-5-oxo-4,5-dihydro-1H-imidazol-4-yl]phenyl dimethylsulfamate] and `CN1C(=O)C(c2cccc(OS(=O)(=O)N(C)C)c2)(c2ccc(F)c(-c3cccnc3)c2)N=C1N` (stereo not drawn) [Example 111, 3-[2-Amino-4-(4-fluoro-3-pyridin-3-ylphenyl)-1-methyl-5-oxo-4,5-dihydro-1H-imidazol-4-yl]phenyldimethylsulfamate] are within 1.5-fold of each other in IC50: 121 nM for the first, 93 nM for the second.

Going from `CN1C(=O)C(c2ccc(OS(=O)(=O)c3c(F)cccc3F)cc2)(c2ccc(F)c(-c3cncnc3)c2)N=C1N` (stereo not drawn) [Example 278, 4-[2-Amino-4-(4-fluoro-3-pyrimidin-5-ylphenyl)-1-methyl-5-oxo-4,5-dihydro-1H-imidazol-4-yl]phenyl 2,6-difluorobenzenesulfonate] to `Cc1noc(C)c1S(=O)(=O)Oc1ccc(C2(c3ccc(F)c(-c4cncnc4)c3)N=C(N)N(C)C2=O)cc1` (stereo not drawn) [Example 280, 4-[2-amino-4-(4-fluoro-3-pyrimidin-5-ylphenyl)-1-methyl-5-oxo-4,5-dihydro-1H-imidazol-4-yl]phenyl 3,5-dimethylisoxazole-4-sulfonate], the IC50 rises from 65 nM to 234 nM (3.6-fold). The first is the more potent here.

First: COc1ccc(C(C)=O)c(-c2cc(C3(c4ccc(OS(C)(=O)=O)cc4)N=C(N)N(C)C3=O)ccc2F)c1 (stereo not drawn) [Example 289, 4-[4-(2′-Acetyl-6-fluoro-5′-methoxybiphenyl-3-yl)-2-amino-1-methyl-5-oxo-4,5-dihydro-1H-imidazol-4-yl]phenyl methanesulfonate]
Second: COc1ccc(C#N)c(-c2cc(C3(c4ccc(OS(C)(=O)=O)cc4)N=C(N)N(C)C3=O)ccc2F)c1 (stereo not drawn) [Example 167, 4-[2-Amino-4-(2′-cyano-6-fluoro-5′-methoxybiphenyl-3-yl)-1-methyl-5-oxo-4,5-dihydro-1H-imidazol-4-yl]phenyl methanesulfonate]
The IC50 of the first is 2.5-fold higher: 115 nM for the first, 46 nM for the second.

Compared with `COc1cccc(-c2cc(C3(c4ccc(OS(C)(=O)=O)cc4)N=C(N)N(C)C3=O)ccn2)c1` (stereo not drawn) [Example 39, 4-{2-Amino-4-[2-(3-methoxyphenyl)pyridin-4-yl]-1-methyl-5-oxo-4,5-dihydro-1H-imidazol-4-yl}phenyl methanesulfonate 0.25 acetate], `COc1cc(OS(C)(=O)=O)cc(-c2cccc(C3(c4ccnc(Cl)c4)N=C(N)N(C)C3=O)c2)c1` (stereo not drawn) [Example 312, 2-Amino-5-(2-chloropyridin-4-yl)-5-[3-(3-methoxy-5-methylsulfonyloxy-phenyl)phenyl]-3-methyl-imidazol-4-one hydrochloride] is 14-fold lower in IC50: 365 nM for the first, 26 nM for the second.

Going from `COc1cc(OS(C)(=O)=O)cc(-c2cccc(C3(c4ccc(OC)c(C)c4)N=C(N)N(C)C3=O)c2)c1` (stereo not drawn) [Example 62, 3′-[2-Amino-4-(4-methoxy-3-methylphenyl)-1-methyl-5-oxo-4,5-dihydro-1H-imidazol-4-yl]-5-methoxybiphenyl-3-ylmethanesulfonate 0.25acetate] to `COc1cc(OS(C)(=O)=O)cc(-c2cc(C3(c4ccccc4)N=C(N)N(C)C3=O)ccc2F)c1` (stereo not drawn) [Example 84, 5′-(2-Amino-1-methyl-5-oxo-4-phenyl-4,5-dihydro-1H-imidazol-4-yl)-2′-fluoro-5-methoxybiphenyl-3-yl methanesulfonate], the IC50 rises from 25 nM to 159 nM (6.4-fold). The first is the more potent here.

First: COc1ccnc(-c2cc(C3(c4cccc(OS(C)(=O)=O)c4)N=C(N)N(C)C3=O)ccc2F)n1 (stereo not drawn) [Example 7, 3-{2-Amino-4-[4-fluoro-3-(4-methoxypyrimidin-2-yl)phenyl]-1-methyl-5-oxo-4,5-dihydro-1H-imidazol-4-yl}phenyl methanesulfonate 0.5 acetate]
Second: CN1C(=O)C(c2cccc(OS(C)(=O)=O)c2)(c2ccc(F)c(C3=CCCC3)c2)N=C1N (stereo not drawn) [Example 194, 3-[2-Amino-4-(3-cyclopent-1-en-1-yl-4-fluorophenyl)-1-methyl-5-oxo-4,5-dihydro-1H-imidazol-4-yl]phenyl methanesulfonate hydrochloride]
The IC50 of the first is 4.2-fold higher: 1200 nM for the first, 284 nM for the second.

First: CN1C(=O)C(c2ccc(OS(C)(=O)=O)cc2)(c2ccc(F)c(C3CCCCC3)c2)N=C1N (stereo not drawn) [Example 300, 4-[2-Amino-4-(3-cyclohexyl-4-fluorophenyl)-1-methyl-5-oxo-4,5-dihydro-1H-imidazol-4-yl]phenyl methanesulfonate 0.5 acetate]
Second: COc1cc(C#N)cc(-c2cc(C3(c4ccc(OS(C)(=O)=O)cc4)N=C(N)N(C)C3=O)ccc2F)c1 (stereo not drawn) [Example 71, 4-[2-Amino-4-(3′-cyano-6-fluoro-5′-methoxybiphenyl-3-yl)-1-methyl-5-oxo-4,5-dihydro-1H-imidazol-4-yl]phenyl methanesulfonate hydrochloride]
The IC50 of the first is 10-fold higher: 410 nM for the first, 41 nM for the second.

Compared with `CCCS(=O)(=O)Oc1cccc(C2(c3ccc(F)c(-c4cncnc4)c3)N=C(N)N(C)C2=O)c1` (stereo not drawn) [Example 102, 3-[2-Amino-4-(4-fluoro-3-pyrimidin-5-ylphenyl)-1-methyl-5-oxo-4,5-dihydro-1H-imidazol-4-yl]phenyl propane-1-sulfonate], `CN1C(=O)C(c2cccc(OS(=O)(=O)c3ccc(Cl)s3)c2)(c2ccc(F)c(-c3cncnc3)c2)N=C1N` (stereo not drawn) [Example 242, 3-[2-Amino-4-(4-fluoro-3-pyrimidin-5-ylphenyl)-1-methyl-5-oxo-4,5-dihydro-1H-imidazol-4-yl]phenyl-5-chlorothiophene-2-sulfonate] is 10-fold lower in IC50: 321 nM for the first, 31 nM for the second. The second is the more potent here.

Compared with `CN1C(=O)C(c2ccc(OS(=O)(=O)c3ccccc3)cc2)(c2ccc(F)c(Br)c2)N=C1N` (stereo not drawn) [Example 184, 4-[2-Amino-4-(3-bromo-4-fluorophenyl)-1-methyl-5-oxo-4,5-dihydro-1H-imidazol-4-yl]phenyl benzenesulfonate], `CN1C(=O)C(c2cccc(OS(=O)(=O)c3c(F)cccc3F)c2)(c2ccc(F)c(Br)c2)N=C1N` (stereo not drawn) [Example 225, 3-[2-Amino-4-(3-bromo-4-fluorophenyl)-1-methyl-5-oxo-4,5-dihydro-1H-imidazol-4-yl]phenyl 2,6-difluorobenzenesulfonate] is 4.1-fold higher in IC50: 156 nM for the first, 633 nM for the second. The first is the more potent here.

First: CN1C(=O)C(c2ccc(OS(=O)(=O)c3c(Cl)nc4sccn34)cc2)(c2ccc(F)c(-c3cccnc3)c2)N=C1N (stereo not drawn) [Example 286]
Second: CCN1C(=O)C(c2ccc(OS(C)(=O)=O)cc2)(c2ccc(F)c(-c3cc(Cl)cc(Cl)c3)c2)N=C1N (stereo not drawn) [Example 161, 4-[2-Amino-4-(3′,5′-dichloro-6-fluorobiphenyl-3-yl)-1-ethyl-5-oxo-4,5-dihydro-1H-imidazol-4-yl]phenyl methanesulfonate]
The IC50 of the first is 25-fold lower: 68 nM for the first, 1680 nM for the second. The first is the more potent here.

Going from `COc1cc(OS(C)(=O)=O)cc(-c2cc(C3(C4CCOCC4)N=C(N)N(C)C3=O)ccc2F)c1` (stereo not drawn) [Example 192, 5′-[2-Amino-1-methyl-5-oxo-4-(tetrahydro-2H-pyran-4-yl)-4,5-dihydro-1H-imidazol-4-yl]-2′-fluoro-5-methoxybiphenyl-3-yl methanesulfonate hydrochloride] to `COc1cccc(-c2cc(C3(c4cccc(OS(=O)(=O)C(C)C)c4)N=C(N)N(C)C3=O)ccc2F)c1` (stereo not drawn) [Example 108, 3-[2-Amino-4-(6-fluoro-3′-methoxybiphenyl-3-yl)-1-methyl-5-oxo-4,5-dihydro-1H-imidazol-4-yl]phenyl propane-2-sulfonate], the IC50 falls from 1260 nM to 186 nM (6.8-fold).

Going from `CCCS(=O)(=O)Oc1cccc(C2(c3ccc(F)c(-c4cccnc4F)c3)N=C(N)N(C)C2=O)c1` (stereo not drawn) [Example 96, 3-{2-Amino-4-[4-fluoro-3-(2-fluoropyridin-3-yl)phenyl]-1-methyl-5-oxo-4,5-dihydro-1H-imidazol-4-yl}phenyl propane-1-sulfonate] to `CN1C(=O)C(c2cccc(OS(=O)(=O)c3ccc(Cl)s3)c2)(c2ccc(F)c(Br)c2)N=C1N` (stereo not drawn) [Example 231, 3-[2-Amino-4-(3-bromo-4-fluorophenyl)-1-methyl-5-oxo-4,5-dihydro-1H-imidazol-4-yl]phenyl 5-chlorothiophene-2-sulfonate], the IC50 rises from 242 nM to 859 nM (3.5-fold).
